Data published in the supplement of paper PMC13380429.

Tests used:
Vero E6 [1] = assay: drug sensitivity score (DSS) for viability; higher = more toxic; extreme values may be limits of the assay; conditions: 72 h
HepG2 [2] = assay: as above; conditions: 72 h
Calu-3 [3] = assay: as above; conditions: 72 h
U2OS [4] = assay: as above; conditions: 72 h
[5] = test system: A549-ACE2 infected with SARS-CoV-2; assay: morphology score (similarity to uninfected cells); higher = more like uninfected cells; conditions: 24 h
Vero E6 [6] = assay: cell viability relative to DMSO; higher = less toxic; conditions: 72 h
HepG2 [7] = assay: as above; conditions: 72 h
Calu-3 [8] = assay: as above; conditions: 72 h
U2OS [9] = assay: as above; conditions: 72 h
[10] = test system: A549-ACE2 infected with SARS-CoV-2; assay: cell count relative to DMSO; higher = less toxic; conditions: 24 h
Vero E6 [11] = assay: relative viability EC50 (midpoint between 100% and the lowest measured viability); higher = less toxic; conditions: 72 h
Calu-3 [12] = assay: as above; conditions: 72 h
[13] = test system: A549-ACE2 infected with SARS-CoV-2; assay: SARS-CoV-2 infection rate relative to DMSO; higher = more infection; conditions: 24 h
Caco-2 [14] = assay: drug sensitivity score (DSS) for viability; higher = more toxic; extreme values may be limits of the assay; conditions: 72 h
A549-ACE2 = assay: drug-induced phospholipidosis relative to tamoxifen; higher = more phospholipidosis
Caco-2 [15] = assay: cell viability relative to DMSO; higher = less toxic; conditions: 72 h
HepG2 [16] = assay: relative viability EC50 (midpoint between 100% and the lowest measured viability); higher = less toxic; conditions: 72 h
Caco-2 [17] = assay: as above; conditions: 72 h
U2OS [18] = assay: as above; conditions: 72 h

COc1ccc(C(=O)/C(Cc2cc(OC)c(OC)c(OC)c2)=C(\C(=O)O)c2ccc3c(c2)OCO3)cc1
Conditions	drug sensitivity score	relative viability EC50 [nM]
Calu-3 [3]	0	–
Calu-3 [12]	–	> 10000
HepG2 [2]	2.4	–
U2OS [4]	2.8	–
Vero E6 [1]	0	–
Vero E6 [11]	–	> 10000

Conditions	SARS-CoV-2 infection rate, [13] [%]	cell count, [10] [%]	cell viability, Calu-3 [8] [%]	cell viability, HepG2 [7] [%]	cell viability, U2OS [9] [%]	cell viability, Vero E6 [6] [%]	morphology score, [5]
1 nM	–	–	91.9	102	98.9	97.1	–
10 nM	–	–	87.6	93.9	94.9	101	–
100 nM	–	–	101	95.3	97.7	104	–
0.3 µM	101	98	–	–	–	–	-0.18
1000 nM	–	–	101	95.2	96.2	109	–
3 µM	95	104	–	–	–	–	0.12
10 µM	42	82	–	–	–	–	0.6
10000 nM	–	–	94.1	65.2	57.6	104	–
30 µM	16	22	–	–	–	–	0.36

Cc1ccc(S(=O)(=O)/C=C/C#N)cc1 [BAY-11-7082]
Conditions	drug sensitivity score	relative viability EC50 [nM]
Caco-2 [14]	4.3	–
Caco-2 [17]	–	2940
Calu-3 [3]	2	–
HepG2 [2]	7.2	–
HepG2 [16]	–	2310
U2OS [4]	5.9	–
U2OS [18]	–	2960
Vero E6 [1]	6	–
Vero E6 [11]	–	2470

drug-induced phospholipidosis [%], A549-ACE2
Conditions	0.3 µM	0.833333 µM	3.33333 µM	6.66667 µM	10 µM
24 h	1.81	0.62	1.15	1.47	1.45
48 h	2.31	0.11	-1.24	0.67	2.43
72 h	3.69	-0.813	-2.01	-1.91	-1.18

Conditions	SARS-CoV-2 infection rate, [13] [%]	cell count, [10] [%]	cell viability, Caco-2 [15] [%]	cell viability, Calu-3 [8] [%]	cell viability, HepG2 [7] [%]	cell viability, U2OS [9] [%]	cell viability, Vero E6 [6] [%]	morphology score, [5]
1 nM	–	–	92.8	104	94.2	97.2	95.5	–
10 nM	–	–	90.5	101	96.9	98.7	94.4	–
0.1 µM	106	101	–	–	–	–	–	0
100 nM	–	–	95.4	110	101	98.5	99.7	–
0.3 µM	99	98	–	–	–	–	–	-0.16
1 µM	108	95	–	–	–	–	–	-0.29
1000 nM	–	–	97.7	107	89.7	97.2	92.6	–
3 µM	107	84	–	–	–	–	–	-0.27
10000 nM	–	–	27	52.2	0	0.1	12.9	–

CC(C)C[C@@H](C=O)NC(=O)[C@H](CC(C)C)NC(=O)[C@H](CC(C)C)NC(=O)OCc1ccccc1 [MG-132]
Conditions	drug sensitivity score	relative viability EC50 [nM]
Caco-2 [14]	15.8	–
Caco-2 [17]	–	391
Calu-3 [3]	14.2	–
Calu-3 [12]	–	578
HepG2 [2]	14.4	–
HepG2 [16]	–	611
U2OS [4]	17	–
U2OS [18]	–	377
Vero E6 [1]	11.6	–
Vero E6 [11]	–	940

A549-ACE2, 24 h
Conditions	drug-induced phospholipidosis [%]
0.3 µM	21.5
0.833333 µM	10.6

Conditions	SARS-CoV-2 infection rate, [13] [%]	cell count, [10] [%]	cell viability, Caco-2 [15] [%]	cell viability, Calu-3 [8] [%]	cell viability, HepG2 [7] [%]	cell viability, U2OS [9] [%]	cell viability, Vero E6 [6] [%]	morphology score, [5]
1 nM	–	–	99.9	96.6	102	99.8	93.1	–
10 nM	–	–	103	113	97	99.7	100	–
100 nM	–	–	94.5	102	107	95.7	104	–
0.3 µM	38	109	–	–	–	–	–	0.7
1000 nM	–	–	17.4	23	22.1	9.3	48.5	–
3 µM	9	37	–	–	–	–	–	0.33
10 µM	20	22	–	–	–	–	–	0.22
10000 nM	–	–	5.2	3.7	-0.1	-0.1	4.4	–
30 µM	30	14	–	–	–	–	–	0.18

C[C@@H]1COCCN1c1cc(=O)n2c(n1)N(Cc1cncc(Cl)c1)[C@H](C(F)(F)F)CC2 [SAR405]
Conditions	drug sensitivity score	relative viability EC50 [nM]
Caco-2 [14]	8.1	–
Calu-3 [3]	0	–
Calu-3 [12]	–	> 10000
HepG2 [2]	5.2	–
U2OS [4]	2	–
Vero E6 [1]	2.2	–

drug-induced phospholipidosis [%], A549-ACE2
Conditions	0.3 µM	0.833333 µM	3.33333 µM	6.66667 µM	10 µM	30 µM
24 h	-2.02	-6.84	10.5	23.4	28.8	39.3
48 h	1.08	-10.5	7.2	36.3	–	–
72 h	3.73	-7.79	5.27	–	–	–

Conditions	SARS-CoV-2 infection rate, [13] [%]	cell count, [10] [%]	cell viability, Caco-2 [15] [%]	cell viability, Calu-3 [8] [%]	cell viability, HepG2 [7] [%]	cell viability, U2OS [9] [%]	cell viability, Vero E6 [6] [%]	morphology score, [5]
1 nM	–	–	84.5	99.7	98.1	97.4	105	–
10 nM	–	–	91.1	97.3	105	96.8	108	–
0.1 µM	94	105	–	–	–	–	–	0.11
100 nM	–	–	80.6	109	101	99.2	104	–
0.3 µM	88	102	–	–	–	–	–	0.09
1 µM	58	114	–	–	–	–	–	0.48
1000 nM	–	–	59.7	104	76.9	96.3	96.9	–
3 µM	31	104	–	–	–	–	–	0.5
10000 nM	–	–	76.3	88.6	55.5	68.9	63.8	–
